These results are taken from paper PMC7998926 (Microorganisms, 2021).

The subject of data set [1] is EBOV/Mak. In kind it is cell-based, Ebola virus.
The subject of data set [2] is EBOV. Put plainly: microbe, parasite or virus in culture. It counts as cell-based, Ebola virus. To be noted: Zaire ebolavirus, read-out: IC50 (average) (μM).
In data set [3] the test system is VSV-EBOV-GPΔ-Luc. In kind it is cell-based.
For data set [4], the system named is EBOV. Details: species or system Ebola virus.
Data set [5] relates to EBOV/Mak. As to conditions: cited from earlier work; for IC50: read-out: IC50 (Huh7).
The conditions of data set [6]: C57BL/6, mouse, in vivo, po; for Cmax obtained relative to prediction, fold higher: female.
For data set [7] the following is noted: mouse, in vivo.
Data set [8] concerns EBOV. As to conditions: read-out: IC50 (HepG2); cited from earlier work.
In data set [9] the test system is MARV. As to conditions: mouse, in vivo, ip, 12 mg/kg; cited from earlier work.
A short description of data set [10]: in vivo. As to conditions: female, C57BL/6, mouse, po.
Data set [11] relates to EBOV. As to conditions: mouse, in vivo, cited from earlier work.
The conditions of data set [12]: mouse, in vivo; cited from earlier work.
For data set [13] the following is noted: human, in vivo, po, cited from earlier work.
Data set [14] deals with EBOV. Details: species or system mice. As to conditions: mouse, in vivo.
Data set [15] concerns EBOV/Mak-C05. To be noted: rhesus monkey, in vivo; cited from earlier work.
Data set [16] can be described thus: in vivo. To be noted: mouse, po, 10 mg/kg.
The conditions of data set [17]: rat, in vivo; cited from earlier work.

Several values for one entry are separate records, joined by “and”; a condition that tells them apart may be missing. Equal entries are not always repeated. Entries after “also recorded” stand apart in the source; their conditions may differ. Where two headings read alike, the source gives them in different places.

On to `CC(C)COCC(CN(Cc1ccccc1)c1ccccc1)N1CCCC1` (stereo not drawn) [Bepridil], for which the “possible loss of potency” value in data set [1] is reported as less than 2 fold. Also, the concentration for half-maximal inhibition (IC50) in data set [2] was approximately 4 µM. Also, the “inhibitory activity over time (stability in V8)” value in data set [3] is recorded as “maintained inhibitory activity over 15 days”. The “mi (hill coefficient of drug i applied in combination)” value in [4] is reported as 4.043. In addition, in data set [5], the Hill coefficient is 4.859 and the half-inhibitory concentration (IC50) was 5.86 µM. Further, in [6], the highest concentration (Cmax) is approximately 3000 nM and the “Cmax obtained relative to prediction, fold higher” value is on record as ~ 1.8 fold. Besides, the tolerability entry in data set [7] is “well tolerated”. In [8], the half-maximal inhibitory concentration (IC50) is 3.21 µM. Further, in data set [9], the “Survival (%)” value is on record as 90 ^4% and the mice protected is listed as 80%. In [10] (150 mg/kg), this compound showed a mean residence time MRT of 6 h and a half-life of 30 min. In data set [10] (500 mg/kg), the MRT is 9 h and the half-life is 30 min. Moreover, in data set [11] (ip, 12 mg/kg), the “Survival (%)” value was 100% and 100 ^3%; the survival is given as 90-100%. Moreover, in [12], the “Oral LD50” value was 2069 mg/kg. In addition, the Cmax in data set [13] (400 mg) is 2430 nM.
For the compound `Cc1cccc(/C=N/Nc2cc(N3CCOCC3)nc(OCCc3ccccn3)n2)c1` [Apilimod], the IC50 in data set [2] and in [5] was 0.17 µM throughout. In addition, the maximum concentration (Cmax) in [13] (70 mg) was 260 nM.
Take `CCN(CC)CCOc1ccc(C(=C(Cl)c2ccccc2)c2ccccc2)cc1` [Clomiphene]: the protection in data set [11] (ip, 12 mg/kg) was 60% and 40%; in [11] (po, 21 mg/kg), “no mice were protected”. Also, the Cmax in data set [13] (50 mg) was 50 nM.
Take `O=C1CCc2ccc(OCCCCN3CCN(c4cccc(Cl)c4Cl)CC3)cc2N1` [Aripiprazole]: in [11] (ip, 20 mg/kg), the “Survival (%)” value was 10 ^1% and the “somnolence in treated mice” value is given as “extremely somnolent”. For the same compound, in [13] (30 mg), the maximum concentration (Cmax) is 1010 nM.
In the case of `CC(=O)c1ccc2c(c1)N(CCCN1CCC(CCO)CC1)c1ccccc1S2` [Piperacetazine], the values for the IC50 in data set [2], in data set [5] and in data set [8] were 5.44 µM, 7.58 µM and 3.3 µM, respectively.
On to `CN[C@H]1CC[C@@H](c2ccc(Cl)c(Cl)c2)c2ccccc21` [Sertraline], for which, in data set [4], the “mi (hill coefficient of drug i applied in combination)” value was 2.736 and 1.996. Moreover, the predicted survival in [14] is given as ~ 35%. For the same compound, the Hill coefficient in data set [5] is 1.628. The figures for the Cmax in data set [6], in data set [16] and in data set [13] (200 mg) were approximately 1200 nM, 430 nM and 540 nM, respectively. Moreover, the “Cmax obtained relative to prediction, fold higher” value in [6] is listed as ~ 1.2 fold. Moreover, the tolerability entry in [7] is “well tolerated”. For the same compound, the protection result in data set [15] is reported as “not effective; also recorded: did not protect macaques”. Further, the MRT in data set [10] (30 mg/kg) was 11 h; in [10] (60 mg/kg), 5 h. Moreover, the half-life in data set [10] (30 mg/kg) and in data set [10] (60 mg/kg) was 60 min throughout. Moreover, the “Survival (%)” value in [11] (ip, 10 mg/kg) was 70%. Besides, the “Oral LD50” value in data set [12] is given as 336 mg/kg.
As for `CC[C@H]1OC(=O)[C@H](C)[C@@H](O[C@H]2C[C@@](C)(OC)[C@@H](O)[C@H](C)O2)[C@H](C)[C@@H](O[C@@H]2O[C@H](C)C[C@H](N(C)C)[C@H]2O)[C@](C)(O)C[C@@H](C)CN(C)[C@H](C)[C@@H](O)[C@]1(C)O` [Azithromycin], the IC50 in data set [2] and in data set [5] was 10.8 µM throughout. Moreover, the “Survival (%)” value in [11] (ip, 100 mg/kg) is recorded as 10, 30, 60 ^2%. In addition, the highest concentration (Cmax) in [13] (500 mg) was 640 nM.
On to `CN(C)CCOc1ccc(/C(=C(/CCCl)c2ccccc2)c2ccccc2)cc1` [Toremifene], for which the half-inhibitory concentration (IC50) was 1.8 µM in data set [2], 3.64 µM in data set [5] and 0.03 µM in [8]. Further, the “inhibitory activity over time (stability in V8)” value in data set [3] is given as “began to lose activity after ~1 week”. The “mi (hill coefficient of drug i applied in combination)” value in [4] worked out at 1.628. In addition, the “approximated protection of infected mice” value in data set [14] is reported as ~ 50%. Further, in [14], the estimated survival is given as ~ 50%. Besides, the predicted survival in data set [14] is ~ 7%. In addition, the Hill coefficient in data set [5] was 3.057. Moreover, the Cmax in data set [6] was approximately 4400 nM; in [10] (100 mg/kg), 498 ng/mL; in data set [10] (200 mg/kg), 1300 ng/mL; in data set [16], 160 nM; in data set [13] (60 mg), 1970 nM. Further, the tolerability entry in [7] is recorded as “well tolerated”. Also, the MRT in [10] (100 mg/kg) amounted to 6 h; in [10] (200 mg/kg), 16 h. Besides, the half-life in data set [10] (100 mg/kg) is 30 min; in data set [10] (200 mg/kg), 12 min. Besides, the “Survival (%)” value in [11] (ip, 60 mg/kg) is on record as 50%. Further, the “Oral LD50” value in [17] was 3000 mg/kg.

Broadly, the IC50 is the midpoint of a concentration-inhibition curve. As a reminder, the Hill coefficient is a measure of the steepness of the concentration-response curve. Broadly, the Cmax is the peak of the concentration-time curve. As usually defined, the MRT is a mean duration of stay, worked out from the concentration-time curve. Broadly, the half-life is the time in which the quantity being followed falls by half. Read a low half-life as rapid decline.
